# Reference: PMC6934184, “Selective DNA-PKcs inhibition extends the therapeutic index of localized radiotherapy and chemotherapy” (The Journal of Clinical Investigation, 2019)
# Biological target: T1, TNIK (Homo sapiens, UniProt Q9UKE5)
# T1 construct: purchased Thermo Fisher Scientific (Life Technologies) SelectScreen
# Test: SelectScreen LanthaScreen
# Type: binding
# Conditions: read-out: % displacement
# Procedure, shortened: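 SelectScreen broad panel; activity (Z'LYTE, Adapta) plus binding formats. ATP: Km app for CSF1R Z'LYTE; 10 for CAMK1 Adapta. Readout = % per kinase.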
# T1 sequence (Q9UKE5 whole entry): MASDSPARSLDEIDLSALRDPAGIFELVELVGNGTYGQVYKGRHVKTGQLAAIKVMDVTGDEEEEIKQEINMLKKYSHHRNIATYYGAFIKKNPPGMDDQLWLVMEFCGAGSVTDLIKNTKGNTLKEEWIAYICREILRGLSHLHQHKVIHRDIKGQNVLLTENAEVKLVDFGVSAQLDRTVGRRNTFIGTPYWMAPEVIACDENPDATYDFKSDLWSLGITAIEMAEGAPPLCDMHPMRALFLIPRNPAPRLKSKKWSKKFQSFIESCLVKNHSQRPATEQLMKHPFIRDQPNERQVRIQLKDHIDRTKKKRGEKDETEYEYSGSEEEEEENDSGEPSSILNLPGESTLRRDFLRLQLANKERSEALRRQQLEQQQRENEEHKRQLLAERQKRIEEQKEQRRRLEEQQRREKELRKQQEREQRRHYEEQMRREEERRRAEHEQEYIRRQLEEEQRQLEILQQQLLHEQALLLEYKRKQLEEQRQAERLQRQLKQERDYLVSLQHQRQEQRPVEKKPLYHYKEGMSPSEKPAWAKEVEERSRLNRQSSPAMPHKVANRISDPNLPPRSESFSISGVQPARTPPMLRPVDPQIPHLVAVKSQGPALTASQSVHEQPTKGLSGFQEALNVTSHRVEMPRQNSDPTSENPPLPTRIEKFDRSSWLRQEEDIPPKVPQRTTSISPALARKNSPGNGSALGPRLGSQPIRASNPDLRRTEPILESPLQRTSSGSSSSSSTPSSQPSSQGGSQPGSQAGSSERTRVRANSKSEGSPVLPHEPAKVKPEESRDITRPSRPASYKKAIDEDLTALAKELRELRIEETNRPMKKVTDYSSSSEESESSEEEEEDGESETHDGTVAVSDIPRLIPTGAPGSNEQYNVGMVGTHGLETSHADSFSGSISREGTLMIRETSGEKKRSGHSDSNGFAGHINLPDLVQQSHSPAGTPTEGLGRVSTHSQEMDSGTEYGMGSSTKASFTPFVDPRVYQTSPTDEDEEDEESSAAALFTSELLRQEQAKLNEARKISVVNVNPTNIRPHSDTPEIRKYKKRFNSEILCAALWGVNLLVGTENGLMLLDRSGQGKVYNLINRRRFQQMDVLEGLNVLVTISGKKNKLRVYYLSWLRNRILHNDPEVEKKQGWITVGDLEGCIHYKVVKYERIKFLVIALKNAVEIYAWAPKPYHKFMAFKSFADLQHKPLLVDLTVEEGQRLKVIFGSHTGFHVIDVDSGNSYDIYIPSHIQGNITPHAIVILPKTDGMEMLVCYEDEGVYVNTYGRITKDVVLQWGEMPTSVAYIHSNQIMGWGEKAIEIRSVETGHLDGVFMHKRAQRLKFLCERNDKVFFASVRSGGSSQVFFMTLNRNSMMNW
smiles,measurement,value
CN(C(=O)CN1CCOCC1)c1ccc2sc3c(-c4cccc5c(=O)cc(N6CC7CCC(C6)O7)oc45)cccc3c2c1 [NU5455],inhibition at 1 µM,7.3%
